How the values were obtained:
Assay type in all cases: cell-based
[1] = biological target: T1, Neuronal acetylcholine receptor subunit alpha-7 (Homo sapiens, UniProt P36544); assay: […] to human alpha7 nAChR expressed in xenopus oocytes preincubated for 10 mins followed by acetylcholine addition by patch clamp electrophysiological assay relative to acetylcholine; parameters: concentration or dose not given beside the values
[2] = biological target: T1, Neuronal acetylcholine receptor subunit alpha-7; assay: Agonist activity at human alpha7 nAChR expressed in xenopus oocytes preincubated for 10 mins followed by acetylcholine addition by patch clamp electrophysiological assay
[3] = biological target: T1, Neuronal acetylcholine receptor subunit alpha-7; assay: Displacement of [3H]-MLA from human alpha7 nAChR expressed in xenopus oocytes in presence of alpha7 nAChR positive allosteric modulator PNU-120596
[4] = biological target: T1, Neuronal acetylcholine receptor subunit alpha-7; assay: Displacement of [3H]-MLA from human alpha7 nAChR expressed in xenopus oocytes

T1 sequence (P36544 whole entry): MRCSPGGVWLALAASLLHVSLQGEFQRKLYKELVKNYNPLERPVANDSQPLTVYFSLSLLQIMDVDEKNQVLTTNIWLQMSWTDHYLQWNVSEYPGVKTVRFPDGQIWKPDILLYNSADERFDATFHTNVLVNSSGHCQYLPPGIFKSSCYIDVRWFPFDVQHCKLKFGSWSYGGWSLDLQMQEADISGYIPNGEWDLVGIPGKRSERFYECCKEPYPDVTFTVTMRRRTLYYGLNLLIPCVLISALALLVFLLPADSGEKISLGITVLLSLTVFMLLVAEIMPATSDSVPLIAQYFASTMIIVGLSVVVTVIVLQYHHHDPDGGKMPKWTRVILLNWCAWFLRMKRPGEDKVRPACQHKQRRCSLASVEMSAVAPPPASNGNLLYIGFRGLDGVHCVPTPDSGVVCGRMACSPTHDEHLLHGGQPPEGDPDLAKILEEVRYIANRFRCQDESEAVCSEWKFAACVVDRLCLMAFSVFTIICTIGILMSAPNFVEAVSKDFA

Molecule `O=C(N[C@H]1CN2CCC1CC2)c1cc2cc(Br)ccn2c1` has an Activity [1] of 34.7% and an EC50 [2] of 10.5 µM.
`O=C(N[C@H]1CN2CCC1CC2)c1cc2ccc(-c3ccccc3)cn2c1` was tested, and the Activity [1] was less than 1% and the EC50 [2] was greater than 20 µM.
For `O=C(N[C@H]1CN2CCC1CC2)c1cc2ccc(Cl)cn2c1`, the Activity [1] was less than 1% and the EC50 [2] was greater than 20 µM.
`Cc1nc2c(Br)cccn2c1C(=O)N[C@H]1CN2CCC1CC2` gave an Activity [1] of less than 1% and an EC50 [2] greater than 20 µM.
For `O=C(N[C@H]1CN2CCC1CC2)c1cc2cccc(-c3ccsc3)n2c1`, the Activity [1] was 40.8% and the EC50 [2] was 3.54 µM.
Work on `CCOC(=O)c1cc(C(=O)c2ccccc2O)n2ccc(C(=O)N[C@H]3CN4CCC3CC4)cc12` yielded an Activity [1] of less than 1% and an EC50 [2] greater than 20 µM.
In the case of `O=C(N[C@H]1CN2CCC1CC2)c1cc2cccc(Br)n2c1`, the Activity [1] is reported as 64.3%, the Ki [3] is reported as 0.0936 µM and the Ki [4] is reported as 0.0149 µM.
`O=C(N[C@H]1CN2CCC1CC2)c1cc2cccc(-c3ccccc3)n2c1` gave an Activity [1] of 59.8% and an EC50 [2] of 3.98 µM.
In the case of `O=C(N[C@H]1CN2CCC1CC2)c1cc2cc(Cl)ccn2c1`, the Activity [1] is reported as 19.6% and the EC50 [2] is reported as 6.92 µM.
`Cc1cccc(-c2cccc3cc(C(=O)N[C@H]4CN5CCC4CC5)cn23)c1` showed an Activity [1] of 63.9% and an EC50 [2] of 3.99 µM.
For `CC(C)(C)c1ccc(-c2ccc3cc(C(=O)N[C@H]4CN5CCC4CC5)cn3c2)cc1`, the Activity [1] was less than 1% and the EC50 [2] was greater than 20 µM.
Molecule `O=C(N[C@H]1CN2CCC1CC2)c1cc2c(-c3ccccc3)cccn2c1` has an Activity [1] of less than 1% and an EC50 [2] greater than 20 µM.
With `CCOC(=O)c1cc(C(=O)c2cccc(F)c2)n2ccc(C(=O)N[C@H]3CN4CCC3CC4)cc12` the Activity [1] was less than 1% and the EC50 [2] was greater than 20 µM.
For `O=C(N[C@H]1CN2CCC1CC2)c1cnc2ccccn12`, the Activity [1] was less than 1% and the EC50 [2] was greater than 20 µM.
`Cc1cccc(-c2ccc3cc(C(=O)N[C@H]4CN5CCC4CC5)cn3c2)c1` showed an Activity [1] of less than 1% and an EC50 [2] greater than 20 µM.
With `O=C(N[C@H]1CN2CCC1CC2)c1cc2c(Br)cccn2c1` the Activity [1] was 75.9% and the EC50 [2] was 4.75 µM.
`O=C(N[C@H]1CN2CCC1CC2)c1cc(C(=O)c2cccc(Br)c2)n2ccccc12` showed an Activity [1] of less than 1% and an EC50 [2] greater than 20 µM.
In the case of `O=C(N[C@H]1CN2CCC1CC2)c1cc2cccc(Cl)n2c1`, the Activity [1] is reported as 63.2% and the EC50 [2] is reported as 2.49 µM.
With `Cc1ccccc1-c1ccc2cc(C(=O)N[C@H]3CN4CCC3CC4)cn2c1` the Activity [1] was less than 1% and the EC50 [2] was greater than 20 µM.
In the case of `CCOC(=O)c1cc(C(=O)c2ccccc2)n2cccc(C(=O)N[C@H]3CN4CCC3CC4)c12`, the Activity [1] is reported as less than 1% and the EC50 [2] is reported as greater than 20 µM.
In the case of `O=C(N[C@H]1CN2CCC1CC2)c1cc2ccccn2c1`, the Activity [1] is reported as 57.1% and the EC50 [2] is reported as 8.38 µM.
`CCOC(=O)c1cc(C(=O)c2ccc(Cl)c(Cl)c2)n2ccc(C(=O)N[C@H]3CN4CCC3CC4)cc12` was tested, and the Activity [1] was less than 1% and the EC50 [2] was greater than 20 µM.
`O=C(N[C@H]1CN2CCC1CC2)c1cc2cccc(-c3ccc(-c4ccccc4)cc3)n2c1` gave an Activity [1] of 18% and an EC50 [2] of 14.1 µM.
`O=C(N[C@H]1CN2CCC1CC2)c1cc(C(=O)c2ccc(-c3ccccc3)cc2)n2ccccc12` showed an Activity [1] of less than 1% and an EC50 [2] greater than 20 µM.
With `O=C(N[C@H]1CN2CCC1CC2)c1cc(C(=O)c2ccccc2Br)n2ccccc12` the Activity [1] was less than 1% and the EC50 [2] was greater than 20 µM.
In the case of `O=C(N[C@H]1CN2CCC1CC2)c1cc2ccc(Br)cn2c1`, the Activity [1] is reported as 86.3% and the EC50 [2] is reported as 9.63 µM.
In the case of `O=C(N[C@H]1CN2CCC1CC2)c1cc2c(F)cccn2c1`, the Activity [1] is reported as 63.7% and the EC50 [2] is reported as 2.83 µM.
`Cc1nc2ccc(F)cn2c1C(=O)N[C@H]1CN2CCC1CC2` gave an Activity [1] of less than 1% and an EC50 [2] greater than 20 µM.
In the case of `CCOC(=O)c1cc(C(=O)c2cccc(Cl)c2)n2ccc(C(=O)N[C@H]3CN4CCC3CC4)cc12`, the Activity [1] is reported as less than 1% and the EC50 [2] is reported as greater than 20 µM.
`O=C(N[C@H]1CN2CCC1CC2)c1cc2cc(-c3ccccc3)ccn2c1` showed an Activity [1] of less than 1% and an EC50 [2] greater than 20 µM.
Molecule `O=C(N[C@H]1CN2CCC1CC2)c1cc2ccc(-c3ccsc3)cn2c1` has an Activity [1] of less than 1% and an EC50 [2] greater than 20 µM.
Molecule `O=C(N[C@H]1CN2CCC1CC2)c1cc(C(=O)c2cccc(Cl)c2)n2ccccc12` has an Activity [1] of less than 1% and an EC50 [2] greater than 20 µM.
`O=C(N[C@H]1CN2CCC1CC2)c1cc(C(=O)c2ccccc2)n2ccccc12` showed an Activity [1] of less than 1% and an EC50 [2] greater than 20 µM.
`O=C(N[C@H]1CN2CCC1CC2)c1cc2ccc(-c3cccs3)cn2c1` showed an Activity [1] of less than 1% and an EC50 [2] greater than 20 µM.
With `CCOC(=O)c1cc(C(=O)c2cccc(C(F)(F)F)c2)n2ccc(C(=O)N[C@H]3CN4CCC3CC4)cc12` the Activity [1] was less than 1% and the EC50 [2] was greater than 20 µM.
Molecule `O=C(N[C@H]1CN2CCC1CC2)c1cc2cccc(Cl)c2s1` [ENCENICLINE] has an Activity [1] of 33.5% and an EC50 [2] of 0.34 µM.
`CCOC(=O)c1cc(C(=O)c2cccc([N+](=O)[O-])c2)n2ccc(C(=O)N[C@H]3CN4CCC3CC4)cc12` was tested, and the Activity [1] was less than 1% and the EC50 [2] was greater than 20 µM.
With `O=C(N[C@H]1CN2CCC1CC2)c1cc(C(=O)c2ccccc2F)n2ccccc12` the Activity [1] was less than 1% and the EC50 [2] was greater than 20 µM.
Molecule `Cc1ccccc1-c1cccc2cc(C(=O)N[C@H]3CN4CCC3CC4)cn12` has an Activity [1] of 17.6% and an EC50 [2] of 4.64 µM.
Molecule `O=C(N[C@H]1CN2CCC1CC2)c1cc(C(=O)c2ccc(Cl)cc2)n2ccccc12` has an Activity [1] of less than 1% and an EC50 [2] greater than 20 µM.
With `CCOC(=O)c1cc(C(=O)c2ccccc2)n2cc(C(=O)N[C@H]3CN4CCC3CC4)ccc12` the Activity [1] was less than 1% and the EC50 [2] was greater than 20 µM.
`O=C(N[C@H]1CN2CCC1CC2)c1cc2c(Cl)cccn2c1` showed an Activity [1] of less than 1% and an EC50 [2] greater than 20 µM.
`O=C(N[C@H]1CN2CCC1CC2)c1cc(C(=O)c2ccc3ccccc3c2)n2ccccc12` showed an Activity [1] of less than 1% and an EC50 [2] greater than 20 µM.
With `CC(C)(C)c1ccc(-c2cccc3cc(C(=O)N[C@H]4CN5CCC4CC5)cn23)cc1` the Activity [1] was 23.9% and the EC50 [2] was 8.6 µM.
`Cc1cccc2cc(C(=O)N[C@H]3CN4CCC3CC4)cn12` showed an Activity [1] of 66% and an EC50 [2] of 2.14 µM.
In the case of `CCOC(=O)c1cc(C(=O)c2ccc(F)cc2)n2ccc(C(=O)N[C@H]3CN4CCC3CC4)cc12`, the Activity [1] is reported as less than 1% and the EC50 [2] is reported as greater than 20 µM.
Work on `CCOC(=O)c1cc(C(=O)c2ccccc2)n2ccc(C(=O)N[C@H]3CN4CCC3CC4)cc12` yielded an Activity [1] of less than 1% and an EC50 [2] greater than 20 µM.
Work on `CN(C)c1cccc(-c2cccc3cc(C(=O)N[C@H]4CN5CCC4CC5)cn23)c1` yielded an Activity [1] of less than 1% and an EC50 [2] greater than 20 µM.

Source: ChEMBL document CHEMBL3785087, “Synthesis and biological activities of indolizine derivatives as alpha-7 nAChR agonists” (Eur J Med Chem, 2016)
